Experimental data taken from patent publication US7098307B2, “Neo-tryptophan” (Mayo Foundation for Medical Education and Research, priority 1998, dated 2006).
Square brackets hold non-standard residues; d marks the D form. Peptide text beside a SMILES is read from it. Ala(indol-4-yl) = N[C@@H](Cc1cccc2[nH]ccc12)C(=O)O; NMeR = CN[C@@H](CCCNC(=N)N)C(=O)O; Tle = CC(C)(C)[C@H](N)C(=O)O

How the values were obtained:
human NTR1 [1] = molecular target: T1, human NTR1 (Homo sapiens, UniProt P30989); experiment: Competition binding with [3H]NT, membranes of CHO-K1 cells transfected with human NTR1
T1 construct: expressed in transfected cells; host or cells: CHO-K1
Procedure: (§1) CHO-K1 cells were stably transfected with nucleic acid encoding either the human NTR1 or the rat NTR1, and cultured in 150 mm petri plates with 35 mL of Dulbecco-modified Eagle's medium containing 100 μM minimal essential medium nonessential amino acids (GIBCO) supplemented with 5% (v/v) FetalClone II bovine serum product (Hyclone Labs, Logan, Utah). CHO cells (subculture 9–19) were harvested at confluency. Briefly, the medium from each plate was removed by aspiration, and the cells washed with 6 mL of 50 mM Tris-HCl (pH 7.4) and resuspended in 5–10 mL of Tris-HCl by scraping the cells with a rubber spatula. The resuspended cells were placed into a centrifuge tube and collected by centrifugation at 300× g for five minutes at 4° C. in a GPR centrifuge (Beckman Instruments, Fullerton, Calif.). The cellular pellet (in 50 mM Tris-HCl, 1 mM EDTA, pH 7.4) was stored at […] until radioligand binding was performed.
(§2) The supernatant was decanted and discarded, and the cellular pellet was resuspended in 2 mL of Tris-HCl, 1 mM EDTA (pH 7.4) followed by homogenization with a Brinkmann Polytron at setting 6 for ten seconds. Centrifugation was repeated as above and the supernatant was decanted and discarded. The resulting final cellular pellet was resuspended in 50 mM Tris-HCl, lmM EDTA, 0.1% bovine serum albumin, and 0.2 mM bacitracin.
(§3) Incubation was at 20° C. for 30 minutes. Each reaction was terminated by addition of cold 0.9% NaCl (5×1.5 mL) followed by rapid filtration through a GF/B filter strip that had been pretreated with 0.2% polyethylenimine.

rat NTR1 [2] = molecular target: T2, rat NTR1 (Rattus norvegicus, UniProt P20789); experiment: Competition binding with [3H]NT, membranes of CHO-K1 cells transfected with rat NTR1
T2 construct: expressed in transfected cells; host or cells: CHO-K1
Procedure: as §1, §2, §3

human NTR1 [3] = molecular target: T1, human NTR1; experiment: PI turnover ([3H]IP1) in intact CHO-K1 cells, human NTR1; format: cell-based
Procedure: (§4) To measure PI turnover, intact CHO-K1 cells were harvested at about 80% confluency. Cells were detached from the petri plates by removal of culture medium followed by incubation of the cellular monolayer for 20 minutes at 37° C. with gentle shaking in a modified Puck's D1 solution containing 2 mM EGTA. […] Briefly, intact CHO cells were prelabeled with D-myo-[^3H]inositol (18.3 Ci/mmol) in the presence of lithium chloride (final concentration, 10 mM). […] For the experiments described herein, the stimulation time was 30 minutes, and the number of CHO cells per assay tube was 1.5×10^5.

rat NTR1 [4] = molecular target: T2, rat NTR1; experiment: PI turnover ([3H]IP1) in intact CHO-K1 cells, rat NTR1; format: cell-based
Procedure: as §4

[5] = Degradation in rat intestinal preparation; format: in vitro ADME; conditions: pH 7.4, 37° C., read-out: half-time, Rat Intestinal Preparation (converted)
Procedure: For intestinal preparations, rats were sacrificed by decapitation, and the small intestines removed. The tissue was washed with ice-cold PBS (10 mM, pH 7.4). About […] of intestinal tissue was added to about 10 mL of PBS and homogenized using a Brinkman polytron homogenizer (setting 6). After homogenization, 10 mL of PBS was added to 10 mL of the intestinal homogenate. […] The supernatant was removed and stored at −20° C. until testing. Immediately before incubation with the polypeptide, the intestinal preparation was filtered through a 0.2 μm filter. Testing procedures were similar to those for the plasma tests.
For the degradation studies, data were plotted in linear form as a semi-log plot with SigmaPlot for Windows Version 4.00. Linear regression on these plots provided the parameters used to calculate the half-time (t1/2) for degradation of each polypeptide. The correlation coefficient (R) for the linear regression was taken as a measure of the goodness-of-fit.

dopamine D2 receptors = molecular target: T3, dopamine D2 receptors (Homo sapiens, UniProt P14416); experiment: Radiolabeled competitive binding, human brain tissue, dopamine
T3 construct: Human brain tissue; from tissue; host or cells: human brain tissue

[6] = Apomorphine-induced climbing, sniffing and licking behavior in rats; format: in vivo, rat
Procedure: Apomorphine was used to assess the ability of NT analogs to act as neuroleptics. Briefly, male Sprague-Dawley rats were pretreated intraperitoneally with either NT69L or saline only. Thirty minutes following pretreatment, the rats received a subcutaneous injection of apomorphine (600 μg/kg). Occasionally, the effectiveness of NT69L was assessed by measuring antinociception and hypothermia just prior to apomorphine administration. Control animals included rats receiving NT69L followed by saline only, and rats receiving no treatment. The apomorphine was dissolved in oxygen-free boiled 0.9% NaCl solution containing 0.1% ascorbic acid and 0.1% metabisulfite to prevent oxidation. The volume of injection was 1 mL/kg under the loose skin at the back of the animal's neck. Inunediately following injection, the rats were placed in cages for observation. About 5–10 minutes later, behavioral monitoring was initiated and lasted for one hour. Climbing episodes were measured by observing the number of times the rat moved up and down in a vertical position during a two minute observation period. Statistical analysis was done using the Student's t-test with P<0.05 being considered significant. Graphs and ED50 data were generated using GraphPad Prism® software (version 2.01, GraphPad Software, Inc., San Diego, Calif.).

NT binding sites = experiment: [125I]NT binding in brain tissue of rats chronically treated; format: in vivo, rat; conditions: 1 mg/kg ip daily four days, 5 mg/kg day five
Procedure: The effect of chronic treatment with NT69L on the number of NT binding sites within brain was assessed. Rats were treated daily with NT69L (1 mg/kg; ip) for four days. On day five, the rats were treated with 5 mg/kg (ip) NT69L, tested behaviorally, and then sacrificed. The PAG and rest of brain were dissected from the animal and used in NT binding analysis. Briefly, homogenates were prepared from freshly obtained PAG and the rest of brain of rats according to Goedert et al. (Brain Res. 304, 71–81 (1984)) with the following modifications: the assay buffer contained the peptidase inhibitors 1,10 phenanthroline (1 μM) and aprotonin (5 mg/ml). For PAG and rest of brain binding assays, tissues were incubated with 0.3 nM [^125I]NT (NEN, Boston, Mass.) at room temperature for 30 minutes. Total and nonspecific binding was measured and the binding sites were normalized to polypeptide concentrations by BCA protein determination (Pierce Chemical Co., Rockford, Ill.).

[7] = Hot plate test (antinociception, % MPE) in rats
[8] = 1 mg/kg ip, 30 minutes before apomorphine

Structure (SMILES): CN[C@@H](CCCNC(=N)N)C(=O)N[C@@H](CCCCN)C(=O)N1CCC[C@H]1C(=O)N[C@@H](Cc1cccc2[nH]ccc12)C(=O)N[C@H](C(=O)N[C@@H](CC(C)C)C(=O)O)C(C)(C)C [NT69L] (H-[NMeR]KP[Ala(indol-4-yl)][Tle]L-OH; N-terminus and C-terminus assumed)
- Kd (human NTR1 [1]): 1.55 ± 0.09 nM
- increase in binding affinity at the human receptor versus Eisai (human NTR1 [1]): 60 fold
- Kd (rat NTR1 [2]): 0.82 ± 0.07 nM
- increase in binding affinity at the rat receptor versus Eisai (rat NTR1 [2]): 6 fold
- EC50 (human NTR1 [3]): 2.3 nM
- improvement in potency at PI turnover versus Eisai, human NTR1 (human NTR1 [3]): about 130 fold
- EC50 (rat NTR1 [4]): 1.34 ± 0.02 nM
- improvement in potency at PI turnover versus Eisai, rat NTR1 (rat NTR1 [4]): about two fold
- half-life [5]: 246 min
- Kd (dopamine D2 receptors): 13.3 µM
- effect on apomorphine-induced climbing behavior [6, 8]: long-lasting blockade of the climbing behavior
- effect on apomorphine-induced sniffing and licking behaviors [6, 8]: did not influence
- effect on apomorphine-induced climbing behavior ([6]; 5 mg/kg ip): completely blocked
- ED50 blockade of apomorphine-induced climbing ([6]; ip, 75 minutes after NT69L, 45 minutes after apomorphine 600 μg/kg sc): 16 µg/kg
- [125I]NT binding, PAG tissue (NT binding sites; control 2.34): 1.89 dpm/μg protein
- [125I]NT binding, rest of brain tissue (NT binding sites; control 3.1): 2.1 dpm/μg protein
- time up to which peak % MPE of 100% was observed ([7]; 1 mg/kg intraperitoneal): about 200 minutes
- time of Peak % MPE ([7]; 1 mg/kg intraperitoneal, rats): 300 min
- % MPE after the first injection ([7]; 1 mg/kg ip daily, day 1): 100%
- analgesic effect after the second injection ([7]; 1 mg/kg ip daily, day 2): no analgesic effect
- analgesic effect after the third injection ([7]; 1 mg/kg ip daily, day 3): no analgesic effect
- analgesic effect on 5× challenge ([7]; 5 mg/kg ip after four days at 1 mg/kg ip): no analgesic effect
- induction of antinociception (hot plate) ([7]; intraperitoneal administration (NT64L 1 mg/kg)): did induce
- ED50 % MPE ([7]; intraperitoneal, @ 90 min): 0.3 mg/kg
- peak % MPE value ([7]; nasal, 5 mg/kg, at 60 minutes): 70%
- peak % MPE value ([7]; oral, 20 mg/kg): 11%
- time of Peak % MPE ([7]; oral, 20 mg/kg): 30 min
